This note sets out measurements from article PMC10575874, “Structural insights into the allosteric inhibition of P2X4 receptors” (Nature Communications, 2023).

Series [1] concerns the target T1, human P2X3 receptor, P2X4-like gain-of-function mutant (Homo sapiens, UniProt P56373, M75W/T82I/V98I).
T1 construct: gene P2RX3
T1 sequence (P56373 1-397 M75W/T82I/V98I): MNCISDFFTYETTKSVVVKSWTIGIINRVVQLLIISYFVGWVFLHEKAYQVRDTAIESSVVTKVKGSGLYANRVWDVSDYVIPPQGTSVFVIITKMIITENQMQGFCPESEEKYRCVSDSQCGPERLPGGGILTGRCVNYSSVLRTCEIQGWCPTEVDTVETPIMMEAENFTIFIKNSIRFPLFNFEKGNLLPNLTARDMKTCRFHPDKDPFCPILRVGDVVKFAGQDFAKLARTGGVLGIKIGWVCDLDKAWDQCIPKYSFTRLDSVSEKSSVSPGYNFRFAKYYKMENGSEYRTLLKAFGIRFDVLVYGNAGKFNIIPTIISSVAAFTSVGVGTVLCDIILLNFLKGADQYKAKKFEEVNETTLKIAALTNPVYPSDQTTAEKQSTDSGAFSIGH
Nature of the series: patch clamp of ATP-evoked currents in HEK293 cells at […] BX430. Type of series: cell-based. (In general: The patch-clamp technique gives a direct electrical read-out from membranes.)

In series [2] the target is T2, zebrafish P2X4 receptor (zfP2X4) (Danio rerio, UniProt F8W463).
T2 construct: gene p2rx4a; residues 9-382 (GenBank AAH66495.1), trimer in PMAL-C8 amphipol
T2 sequence (F8W463 9-382): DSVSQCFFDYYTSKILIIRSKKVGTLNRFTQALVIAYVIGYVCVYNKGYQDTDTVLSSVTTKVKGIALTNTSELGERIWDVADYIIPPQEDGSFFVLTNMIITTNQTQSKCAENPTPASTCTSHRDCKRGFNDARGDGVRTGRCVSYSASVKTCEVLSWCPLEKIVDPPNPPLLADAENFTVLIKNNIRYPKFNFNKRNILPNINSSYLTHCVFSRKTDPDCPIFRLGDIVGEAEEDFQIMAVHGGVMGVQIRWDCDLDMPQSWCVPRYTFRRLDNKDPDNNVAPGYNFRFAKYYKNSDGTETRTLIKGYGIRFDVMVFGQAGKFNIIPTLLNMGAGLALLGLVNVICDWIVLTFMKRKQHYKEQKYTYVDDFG
Briefly: cryo-EM structure ([…] Å); whole-cell patch clamp in HEK293 cells.

Series [3] concerns the molecule itself. Briefly: cryo-EM structure; purified zfP2X4 in PMAL-C8 amphipol, incubated with 50 uM BX430 or 125 uM BAY-1797 for 1 h; C3 symmetry imposed, also processed with C1 symmetry.

Take `CC(C)c1cc(Br)c(NC(=O)Nc2cccnc2)c(Br)c1` [BX430, 1-(2,6-dibromo-4-isopropylphenyl)-3-(3-pyridyl)urea]: in series [1], the “patch clamp of ATP-evoked currents in HEK293 cells at 30 and 100 μM BX430” value is on record as “the P2X4-like mutant of human P2X3 (M75W/T82I/V98I) conferred sensitivity to BX430”. The IC50 result in series [2] is reported as “BX430-bound zfP2X4 (EMD-36668) (PDB 8JV5)”.

B1: zebrafish P2X4 receptor (residues 9-382) (receptor, UniProt F8W463 9-382, looked up)
chain: T2 sequence (F8W463 9-382)
notes: P2X4 receptor, zebrafish (Danio rerio), GenBank AAH66495.1, residues 9-382 (truncation of the N-terminal 8 and the C-terminal 7 residues); Homotrimer; A C-terminal HRV 3C site stood before TGP and the Twin-Strep-tag; residues of the site may remain after cleavage; also called zfP2X4; source: Sf9 (baculovirus), purified (Strep-Tactin, HRV 3C cleavage, SEC), reconstituted into PMAL-C8 amphipol; not …
As to B1, the stoichiometry N (commonly the number of molecules, sites or subunits per partner or assembly) in series [3] was found to be 3.
